From US5258406A, “Sulfonimidamides” (priority 1992, dated 1993)
Like-named read-outs stand apart in the source and are kept apart here.

Key:
[1] = test system: 6C3HED lymphosarcoma; assay: animal or person; assay type: in vivo; conditions: for Tox/Tot (mice which died / total) / % inhibition of tumor growth: oral
Experimental: (§1) The compounds were tested in C3H mice bearing a 6C3HED lymphosarcoma, also known as the Gardner lymphosarcoma (GLS), and in a variety of human tumor xenografts in CD1 nu/nu mice, including CX-1, LX-1, HXGC3, and VRC5. The 6C3HED lymphosarcoma was obtained from the Division of Cancer Treatment, National […] Institute, Tumor Bank, maintained at E. G. and G. Mason Research (Worcester, Mass.). The CX-1 human colon carcinoma and the LX-1 human lung carcinoma xenografts were obtained from the National Cancer Institute. The HXGC3 and VRC5 human colon xenografts were obtained from Dr. P. J. Houghton, St. Jude Children's Hospital in Memphis (see Br. J. Cancer, 37, 213 (1978)). First passage tumor was stored in liquid nitrogen using standard techniques. The transplanted tumor was reestablished from the Tumor Bank every six months or as needed. The tumor was maintained by serial passage twice weekly in C3H mice.
(§2) In the procedure the tumor was removed from passage animals and minced into 1- to 3-mm square fragments using sterile techniques. Tumor pieces were checked for sterility using both Antibiotic Medium 1 and Brain Heart Infusion (Difco, Detroit, Mich.). Recipient mice were shaved and tumor pieces were implanted subcutaneously in the auxiliary region by trocar. Drug therapy on the appropriate schedule was initiated on the day after tumor implant for 6C3HED and after a seven (7) day delay for xenografts (or other delay as noted in Table 2). The compound being tested was mixed with 2.5% Emulphor EL620 from GAF Corporation (1:40 dilution in saline). Food and water were provided ad libitium. The drug was administered orally in 0.5 ml of 2.5% Emulphor (unless otherwise indicated). The tumor was measured the day after treatment ended with two dimensional measurements (width and length) of the tumor taken using automated digital calipers interfaced to a microcomputer. Approximate weight for the tumor was calculated using the following formula [Worzalla, J. F., et al., Invest. New Drugs, 8, 241 (1990], (tumor weight in mg)=(width in mm)^2 ×(length in mm)/2.
(§3) At least one control group of an equal number of mice was treated with the same volume of 2.5% Emulphor only. The percent inhibition was determined by subtracting the ratio of the mean tumor size of the test group relative to the control group from one and multiplying the result times 100.
(§4) The results of several experiments in mice bearing a 6C3HED lymphosarcoma (or other tumor where indicated) when the indicated compounds were administered are provided in Table 2. In Table 2, column 1 gives the Example number of the compound used, column 2 lists the dose level in mg/kg, column 3 provides the percent inhibition of tumor growth, column 4 gives the number of mice which died relative to the total number of animals in the group, column 5 gives the method of administration of the compound, and column 6 gives the dosage schedule. The protocol used with other tumors was the same as with the 6C3HED lymphosarcoma.

[2] = test system: LX1; assay type: in vivo
Experimental: as §1, §2, §3, §4

Structure (SMILES): Cc1cc(S(=N)(=O)NC(=O)Nc2ccc(Cl)cc2)cc(C)c1C (stereo not shown) [Example 45, N-[[(4-chlorophenyl)amino]carbonyl]-3,4,5-trimethylbenzenesulfonimidamide]
- inhibition in vivo at 9.37 mg/kg ([1]; Mus musculus, 6C3HED, po, read-out: % inhibition of tumor growth, oral, 9.37 mg/kg, Days 1, 3, 5, 7): 78%
- inhibition in vivo at 18.75 mg/kg ([1]; Mus musculus, 6C3HED, po, read-out: % inhibition of tumor growth, oral, 18.75 mg/kg, Days 1, 3, 5, 7): 95%
- inhibition in vivo at 37.5 mg/kg ([1]; Mus musculus, 6C3HED, po, read-out: % inhibition of tumor growth, oral, 37.5 mg/kg, Days 1, 3, 5, 7): 99%
- inhibition in vivo at 75 mg/kg ([1]; Mus musculus, 6C3HED, po, read-out: % inhibition of tumor growth, oral, 75 mg/kg, Days 1, 3, 5, 7): 99%
- inhibition in vivo at 150 mg/kg ([1]; Mus musculus, 6C3HED, po, read-out: % inhibition of tumor growth, oral, 150 mg/kg, Days 1, 3, 5, 7): 100%
- inhibition in vivo at 300 mg/kg ([1]; Mus musculus, 6C3HED, po, read-out: % inhibition of tumor growth, oral, 300 mg/kg, Days 1, 3, 5, 7): 100%
- Tox/Tot (mice which died / total) ([1]; 9.37 mg/kg, Days 1, 3, 5, 7): 0/10
- Tox/Tot (mice which died / total) ([1]; 18.75 mg/kg, Days 1, 3, 5, 7): 0/10
- Tox/Tot (mice which died / total) ([1]; 37.5 mg/kg, Days 1, 3, 5, 7): 2/10
- Tox/Tot (mice which died / total) ([1]; 75 mg/kg, Days 1, 3, 5, 7): 1/10
- % inhibition of tumor growth ([1]; 150 mg/kg, Days 1, 3, 5, 7): 99%
- Tox/Tot (mice which died / total) ([1]; 150 mg/kg, Days 1, 3, 5, 7): 2/10
- Tox/Tot (mice which died / total) ([1]; 300 mg/kg, Days 1, 3, 5, 7): 3/10
- Tox/Tot (mice which died / total) ([2]; oral, 150 mg/kg, Days 1, 4, 7, 10, from day 7 after implant): 0/9
- Tox/Tot (mice which died / total) ([2]; oral, 300 mg/kg, Days 1, 4, 7, 10, from day 7 after implant): 0/10
- % inhibition of tumor growth ([2]; po, 150 mg/kg, 168 h): 40%
- % inhibition of tumor growth ([2]; po, 300 mg/kg, 168 h): 31%

Structure (SMILES): CN=S(=O)(NC(=O)Nc1ccc(Cl)cc1)c1ccc(C)cc1 (stereo not shown) [Example 3, N-[[(4-Chlorophenyl)amino]carbonyl]-N',4-dimethylbenzenesulfonimidamide]
- inhibition in vivo at 12.5 mg/kg ([1]; Mus musculus, 6C3HED, po, read-out: % inhibition of tumor growth, oral, 12.5 mg/kg, BIDX 8): 58%
- inhibition in vivo at 25 mg/kg ([1]; Mus musculus, 6C3HED, po, read-out: % inhibition of tumor growth, oral, 25 mg/kg, BIDX 8): 82%
- inhibition in vivo at 50 mg/kg ([1]; Mus musculus, 6C3HED, po, read-out: % inhibition of tumor growth, oral, 50 mg/kg, BIDX 8): 91%
- inhibition in vivo at 75 mg/kg ([1]; Mus musculus, 6C3HED, po, read-out: % inhibition of tumor growth, oral, 75 mg/kg, DX 8): 81%
- inhibition in vivo at 100 mg/kg ([1]; Mus musculus, 6C3HED, po, read-out: % inhibition of tumor growth, oral, 100 mg/kg, BIDX 8): 99%
- inhibition in vivo at 150 mg/kg ([1]; Mus musculus, 6C3HED, po, read-out: % inhibition of tumor growth, oral, 150 mg/kg, DX 8): 93%
- inhibition in vivo at 200 mg/kg ([1]; Mus musculus, 6C3HED, po, read-out: % inhibition of tumor growth, oral, 200 mg/kg, BIDX 8): 100%
- inhibition in vivo at 300 mg/kg ([1]; Mus musculus, 6C3HED, po, read-out: % inhibition of tumor growth, oral, 300 mg/kg, DX 8): 99%
- inhibition in vivo at 600 mg/kg ([1]; Mus musculus, 6C3HED, po, read-out: % inhibition of tumor growth, oral, 600 mg/kg, DX 8): 100%
- Tox/Tot (mice which died / total) ([1]; 12.5 mg/kg, BIDX 8): 0/10
- Tox/Tot (mice which died / total) ([1]; 25 mg/kg, BIDX 8): 0/10
- Tox/Tot (mice which died / total) ([1]; 50 mg/kg, BIDX 8): 0/10
- Tox/Tot (mice which died / total) ([1]; 75 mg/kg, DX 8): 0/10
- Tox/Tot (mice which died / total) ([1]; 100 mg/kg, BIDX 8): 0/10
- % inhibition of tumor growth ([1]; 150 mg/kg, DX 8): 96%
- Tox/Tot (mice which died / total) ([1]; 150 mg/kg, DX 8): 1/10
- Tox/Tot (mice which died / total) ([1]; 200 mg/kg, BIDX 8): 0/10
- Tox/Tot (mice which died / total) ([1]; 300 mg/kg, DX 8): 0/10
- Tox/Tot (mice which died / total) ([1]; 600 mg/kg, DX 8): 4/10
- % inhibition of tumor growth ([1]; 1200 mg/kg, DX 8): TOX
- Tox/Tot (mice which died / total) ([1]; 1200 mg/kg, DX 8): 10/10
- % inhibition of tumor growth ([2]; oral, 150 mg/kg, BIDX 10): TOX
- Tox/Tot (mice which died / total) ([2]; oral, 150 mg/kg, BIDX 10): 8/8
- % inhibition of tumor growth ([2]; oral, 300 mg/kg, BIDX 10): TOX
- Tox/Tot (mice which died / total) ([2]; oral, 300 mg/kg, BIDX 10): 8/8

Structure (SMILES): Cc1ccc(S(=O)(=NC(=O)Nc2ccc(Cl)cc2)NCC(C)C)cc1 (stereo not shown) [Example 8]
- inhibition in vivo at 18.75 mg/kg ([1]; Mus musculus, 6C3HED, po, read-out: % inhibition of tumor growth, oral, 18.75 mg/kg, BIDX 8): 29%
- inhibition in vivo at 25 mg/kg ([1]; Mus musculus, 6C3HED, po, read-out: % inhibition of tumor growth, oral, 25 mg/kg, DX 8): 28%
- inhibition in vivo at 37.5 mg/kg ([1]; Mus musculus, 6C3HED, po, read-out: % inhibition of tumor growth, oral, 37.5 mg/kg, BIDX 8): 60%
- inhibition in vivo at 50 mg/kg ([1]; Mus musculus, 6C3HED, po, read-out: % inhibition of tumor growth, oral, 50 mg/kg, DX 8): 31%
- inhibition in vivo at 75 mg/kg ([1]; Mus musculus, 6C3HED, po, read-out: % inhibition of tumor growth, oral, 75 mg/kg, BIDX 8): 85%
- inhibition in vivo at 100 mg/kg ([1]; Mus musculus, 6C3HED, po, read-out: % inhibition of tumor growth, oral, 100 mg/kg, DX 8): 51%
- inhibition in vivo at 150 mg/kg ([1]; Mus musculus, 6C3HED, po, read-out: % inhibition of tumor growth, oral, 150 mg/kg, BIDX 8): 97%
- Tox/Tot (mice which died / total) ([1]; 18.75 mg/kg, BIDX 8): 0/10
- Tox/Tot (mice which died / total) ([1]; 25 mg/kg, DX 8): 0/10
- Tox/Tot (mice which died / total) ([1]; 37.5 mg/kg, BIDX 8): 0/10
- Tox/Tot (mice which died / total) ([1]; 50 mg/kg, DX 8): 0/10
- Tox/Tot (mice which died / total) ([1]; 75 mg/kg, BIDX 8): 0/10
- Tox/Tot (mice which died / total) ([1]; 100 mg/kg, DX 8): 0/10
- % inhibition of tumor growth ([1]; 150 mg/kg, BIDX 8): 98%
- % inhibition of tumor growth ([1]; 300 mg/kg, BIDX 8): TOX
- Tox/Tot (mice which died / total) ([1]; 300 mg/kg, BIDX 8): 10/10
